Values of other authors, collected in US20150150812A1, “CONTROLLED RELEASE FORMULATIONS WITH […]” (Egalet Ltd., priority 2009, published 2015).

System: postoperative patients

In the case of `CN1CC[C@]23c4c5ccc(O)c4O[C@H]2[C@@H](O)C=C[C@H]3[C@H]1C5` [morphine], the “Calculated mean (SD) MEAC” value (10 postoperative patients, Dahlström et al (1982)) is given as 16 (9) ng/mL and the “Estimated MEAC” value (postoperative patients, patient-controlled analgesia, Graves et al (1985)) is given as 20 to 40 ng/mL.
